Measured values taken from patent US9783503B2, “Crystalline forms of an estrogen receptor modulator” (Genentech, Inc., priority 2014, dated 2017).
“Also recorded” adds a separate entry of the source. Structures can show the parent of a compound that is named as a salt.

Key:
breast tumor cell = test: Breast tumor cell proliferation; assay type: cell-based
[1] = test system: xenograft models of ER+ breast cancer; test: Tamoxifen-sensitive and tamoxifen-resistant xenograft models of ER+ breast cancer; assay type: in vivo
Oral bioavailability = conditions: in vivo
[2] = Static storage stability at elevated humidity, checked by XRPD; assay type: physicochemical
Excerpt: X-Ray powder diffraction patterns were collected on a Bruker AXS C2 GADDS or a Bruker AXS D8 Advance diffractometer.

[3] = Thermodynamic aqueous solubility; conditions: for solubility at 24 h: water, 25 °C, thermodynamic from solid
Method: The suspension was equilibrated at 25° C. for 24 hours then the pH was measured. The suspension was then filtered through a glass fibre C filter. […] Different volumes of the standard, diluted and undiluted sample solutions were injected.
Analysis was performed on an Agilent HP1100 series system equipped with a diode array detector and using ChemStation software vB.02.01-SR1.

[4] = Gravimetric Vapor Sorption (GVS); assay type: physicochemical
Method: Sorption isotherms were obtained using a SMS DVS Intrinsic moisture sorption analyzer, controlled by DVS Intrinsic Control software v1.0.0.30. The sample temperature was maintained at 25° C. by the instrument controls. The humidity was controlled by mixing streams of dry and wet nitrogen, with a total flow rate of 200 mL/min. The relative humidity was measured by a calibrated Rotronic probe (dynamic range of 1.0-100% RH), located near the sample. The weight change, (mass relaxation) of the sample as a function of % RH was constantly monitored by the microbalance (accuracy+0.005 mg).
Typically 5-20 mg of sample was placed in a tared mesh stainless steel basket under ambient conditions. The sample was loaded and unloaded at 40% RH and 25° C. (typical room conditions). A moisture sorption isotherm was performed as outlined below (2 scans giving 1 complete cycle). The standard isotherm was performed at 25° C. at 10% RH intervals over a 0-90% RH range. Data analysis was undertaken in Microsoft Excel using DVS Analysis Suite v6.0.0.7.
The sample was recovered after completion of the isotherm and re-analyzed by XRPD.

CC/C(=C(/c1ccc(/C=C/C(=O)O)cc1)c1ccc2[nH]ncc2c1)c1ccc(F)cc1Cl [(E)-3-(4-((E)-2-(2-Chloro-4-fluorophenyl)-1-(1H-indazol-5-yl)but-1-en-1-yl)phenyl)acrylic acid]
breast tumor cell proliferation (breast tumor cell): inhibition of breast tumor cell proliferation | anti-tumor activity ([1]; both tamoxifen-sensitive and tamoxifen-resistant xenograft models): dose dependent anti-tumor activity | ER-α tumor levels ([1]; tamoxifen-resistant xenograft models): reduction of ER-α tumor levels | Efficacious doses ([1]; xenograft models of ER+ breast cancer): 1 to 100 mg/kg/day | oral bioavailability (Oral bioavailability): good oral bioavailability

CC/C(=C(/c1ccc(/C=C/C(=O)O)cc1)c1ccc2[nH]ncc2c1)c1ccc(F)cc1Cl [Pattern 2, (E)-3-(4-((E)-2-(2-chloro-4-fluorophenyl)-1-(1H-indazol-5-yl)but-1-en-1-yl)phenyl)acrylic acid, N-methyl glucamine salt]
change of XRPD pattern after storage ([2]; 40° C. and 75% RH for 7 days): converted to Form 1

CC/C(=C(/c1ccc(/C=C/C(=O)O)cc1)c1ccc2[nH]ncc2c1)c1ccc(F)cc1Cl [N-Methylglucamine, (2S,3R,4R,5R)-2,3,4,5,6-pentahydroxy-N-methylhexan-1-aminium (E)-3-(4-((E)-2-(2-chloro-4-fluorophenyl)-1-(1H-indazol-5-yl)but-1-enyl)phenyl)acrylate]
solubility at 24 h ([3]; Solubility, aqueous, crystalline salt prepared from MeCN (300 Vols)): 10.6 mg/mL

CC/C(=C(/c1ccc(/C=C/C(=O)O)cc1)c1ccc2[nH]ncc2c1)c1ccc(F)cc1Cl [Form 1, (E)-3-(4-((E)-2-(2-chloro-4-fluorophenyl)-1-(1H-indazol-5-yl)but-1-en-1-yl)phenyl)acrylic acid, N-methyl glucamine salt]
change of XRPD pattern after storage ([2]; 25° C. and 96% RH for 7 days): no visible change; also recorded: No difference in the XRPD patterns | change of XRPD pattern after storage ([2]; 40° C. and 75% RH for 7 days): no visible change; also recorded: no difference in the XRPD patterns | change by XRPD upon extended storage ([2]; extended storage in high humidity conditions at 40° C.): no visible change | hysteresis of sorption isotherm ([4]; 0-90% RH, 25° C.): no hysteresis | change of XRPD pattern after GVS analysis ([4]; after completion of the isotherm): No change in the XRPD pattern | mass uptake ([4]; between 0-90% RH, 25° C.): ca. 4.75% | pH of saturated aqueous solution ([3]; saturated aqueous solution, 25° C., 24 hours): about 5.45 | solubility at 24 h ([3]; pH 5.45, water, aqueous solubility, saturated aqueous solution, equilibrated at 25° C. for 24 hours): 15.8 mg/mL

C[C@]12CC[C@@H]3c4ccc(O)cc4C[C@@H](CCCCCCCCC[S+]([O-])CCCC(F)(F)C(F)(F)F)[C@H]3[C@@H]1CC[C@@H]2O (stereo partly shown) [fulvestrant, reference compound]
efficacy compared with the free acid ([1]; in some of these models): less efficacious
